Where two headings read alike, the source gives them in different places.
Key:
cereblon (CRBN) = cereblon (CRBN) (Homo sapiens, UniProt Q96SW2); test: Kd and % inhibition from FI; assay type: binding; conditions: for inhibition at 200 µM: read-out: % inhibition @ 200 uM from *FI
CRBN = molecular target: T1, CRBN (Homo sapiens, UniProt Q96SW2); test: Western blot for expression of CRBN relative to vinculin in human T cells (CRBN degradation); assay type: cell-based; conditions: read-out: Relative Density of CRBN (% of DMSO); for remaining activity at 0.01 µM: 24 h
T1 construct: endogenous in cells; host or cells: primary human T cells / CD8+ T cells from peripheral blood
Description: Bortez=bortezomib; MG132=proteasome inhibitor; MLN4924=NEDD8 inhibitor.
This assay is a standard Western blot assay for expression of CRBN relative to vinculin.
[…] 0.1 percent DMSO was used as a vehicle control.

[1] = FI, read-out: Kd (FI) (converted)
[2] = cell does not state FI or ITC, read-out: Kd (A) FI/ITC

Sequence of cereblon (CRBN) (Q96SW2 whole entry, species assumed): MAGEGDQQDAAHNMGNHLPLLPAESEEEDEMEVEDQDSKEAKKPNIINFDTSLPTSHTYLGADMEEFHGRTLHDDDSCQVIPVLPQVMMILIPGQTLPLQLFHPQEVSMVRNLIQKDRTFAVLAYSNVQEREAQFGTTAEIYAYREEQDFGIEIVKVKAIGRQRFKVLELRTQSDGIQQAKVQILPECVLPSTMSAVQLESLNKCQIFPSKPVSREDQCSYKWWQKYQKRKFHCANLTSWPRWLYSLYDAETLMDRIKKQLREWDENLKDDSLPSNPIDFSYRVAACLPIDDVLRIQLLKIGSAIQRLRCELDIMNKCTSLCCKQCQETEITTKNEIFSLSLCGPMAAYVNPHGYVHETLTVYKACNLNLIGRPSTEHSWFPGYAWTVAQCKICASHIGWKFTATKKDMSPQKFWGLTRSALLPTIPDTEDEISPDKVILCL
T1 sequence (Q96SW2 whole entry): as the sequence (Q96SW2 whole entry, species assumed) above

Row | Kd (cereblon (CRBN); [1]) | inhibition at 200 µM (cereblon (CRBN)) | remaining activity at 10 µM (CRBN) | remaining activity at 0.01 µM (CRBN; 10nM, human T cells, 24 hours) | Kd (A) FI/ITC (cereblon (CRBN); cell does not state FI or ITC) | Kd (cereblon (CRBN); [2]) | % inhibition @ 200 uM from *FI (cereblon (CRBN)) | SMILES | remaining activity at 0.01 µM (CRBN)
1 | 15.2 ± 1.52 µM | 72.9 ± 1.19% | 85.3% | 110% | – | – | – | O=C(/C=C/c1cccc2c1CN(C1CCC(=O)NC1=O)C2=O)NCCOCCNC(=O)/C=C/c1cccc2c1CN(C1CCC(=O)NC1=O)C2=O (centres unmarked) [SM3-006, (2E,2′E)-N,N′-(Oxybis(ethane-2,1-diyl))bis(3-(2-(2,6-dioxopiperidin-3-yl)-1-oxoisoindolin-4-yl)acrylamide)] | –
2 | – | – | 13.3% | – | – | 35.5 ± 47.9 µM | – | O=C1CCC(N2Cc3c(CCCCCCCCCCc4cccc5c4CN(C4CCC(=O)NC4=O)C5=O)cccc3C2=O)C(=O)N1 (centres unmarked) [EC2-093, 3,3′-(Decane-1,10-diylbis(1-oxoisoindoline-4,2-diyl))bis(piperidine-2,6-dione)] | –
3 | – | – | 11.7% | 44.2% | – | – | n.b. | O=C1CCC(N2C(=O)c3cccc(NC(=O)CCCCCCC(=O)Nc4cccc5c4C(=O)N(C4CCC(=O)NC4=O)C5=O)c3C2=O)C(=O)N1 (centres unmarked) | –
4 | – | 23.2 ± 20% | 16.8% | 95.3% | – | – | – | O=C1CCC(N2C(=O)c3cccc(NC(=O)CCCCC(=O)Nc4cccc5c4C(=O)N(C4CCC(=O)NC4=O)C5=O)c3C2=O)C(=O)N1 (centres unmarked) [EC1-120, N^1,N^6-bis(2-(2,6-Dioxopiperidin-3-yl)-1,3-dioxoisoindolin-4-yl)adipamide] | –
5 | 23.6 ± 2.55 µM | 83.6 ± 4% | 2.97% | 73.8% | – | – | – | O=C1CCC(N2Cc3c(NC(=O)CCCC(=O)Nc4cccc5c4CN(C4CCC(=O)NC4=O)C5=O)cccc3C2=O)C(=O)N1 (centres unmarked) [EC1-148, N^1,N^5-Bis(2-(2,6-dioxopiperidin-3-yl)-1-oxoisoindolin-4-yl)glutaramide] | –
6 | – | 47.9 ± 11% | 19.8% | 114% | – | – | – | O=C1CCC(N2C(=O)c3cccc(NC(=O)CCCC(=O)Nc4cccc5c4C(=O)N(C4CCC(=O)NC4=O)C5=O)c3C2=O)C(=O)N1 (centres unmarked) [EC1-117, N^1,N^5-bis(2-(2,6-Dioxopiperidin-3-yl)-1,3-dioxoisoindolin-4-yl)glutaramide] | –
7 | – | – | 33% | 33.4% | – | – | n.b. | O=C1CCC(N2C(=O)c3cccc(NC(=O)CCCCCCCCC(=O)Nc4cccc5c4C(=O)N(C4CCC(=O)NC4=O)C5=O)c3C2=O)C(=O)N1 (centres unmarked) [EC1-132, N^1,N^10-bis(2-(2,6-Dioxopiperidin-3-yl)-1,3-dioxoisoindolin-4-yl)decanediamide] | –

More lines, now with the values behind:

Row | SMILES | Kd (cereblon (CRBN); [1]) | inhibition at 200 µM (cereblon (CRBN)) | remaining activity at 10 µM (CRBN) | remaining activity at 0.01 µM (CRBN; 10nM, human T cells, 24 hours) | Kd (A) FI/ITC (cereblon (CRBN); cell does not state FI or ITC) | Kd (cereblon (CRBN); [2]) | % inhibition @ 200 uM from *FI (cereblon (CRBN)) | remaining activity at 0.01 µM (CRBN)
8 | O=C1CCC(N2Cc3c(OCc4ccc(CN5CCN(Cc6ccc(COc7cccc8c7CN(C7CCC(=O)NC7=O)C8=O)cc6)CC5)cc4)cccc3C2=O)C(=O)N1 (centres unmarked) [EC1-168.MS] | – | – | 107% | – | insoluble | – | – | –
9 | O=C(COc1cccc2c1C(=O)N(C1CCC(=O)NC1=O)C2=O)NCCCCNC(=O)COc1cccc2c1C(=O)N(C1CCC(=O)NC1=O)C2=O (centres unmarked) [SY2-060, N,N′-(Butane-1,4-diyl)bis(2-((2-(2,6-dioxopiperidin-3-yl)-1,3-dioxoisoindolin-4-yl)oxy)acetamide)] | – | 1.52 ± 1.91% | – | – | – | – | – | 104%
10 | O=C1CCC(N2Cc3c(CCCOCCOCCOCCCc4cccc5c4CN(C4CCC(=O)NC4=O)C5=O)cccc3C2=O)C(=O)N1 (centres unmarked) [SM2-129, 3,3′-((((Oxybis(ethane-2,1-diyl))bis(oxy))bis(propane-3,1-diyl))bis(1-oxoisoindoline-4,2-diyl))bis(piperidine-2,6-dione)] | 11.1 ± 0.58 µM | 76.2 ± 1.54% | 12.4% | 53.6% | – | – | – | –
11 | O=C1CCC(NC(=O)c2cccc(NC(=O)CCCC(=O)Nc3cccc(C(=O)NC4CCC(=O)NC4=O)c3)c2)C(=O)N1 (centres unmarked) [XS01-074, N^1,N^5-Bis(3-((2,6-Dioxopiperidin-3-yl)carbamoyl)phenyl)glutaramide] | – | – | 25.9% | – | – | 187 ± 16.2 µM | – | –
12 | O=C1CCC(N2Cc3c(C#CCOCCOCC#Cc4cccc5c4CN(C4CCC(=O)NC4=O)C5=O)cccc3C2=O)C(=O)N1 (centres unmarked) [SY4-065] | – | – | 136% | 1.75% | n.b. | – | – | –
